Reference: patent publication US10336762B2 (priority 2017, dated 2019)
Read-outs that look alike come from different tables or passages of the source.

Legend:
TNFα = test: cells; assay type: cell-based, human; conditions: LPS-stimulated human monocytes, read-out: EC50 TNF
IRAK4 enzyme = IRAK4 enzyme (Homo sapiens (Human), UniProt Q9NWZ3); test: biochemical; assay type: biochemical; conditions: IRAK4 enzyme, 500 μM ATP
[1] = Homo sapiens, Monocyte, TNFα content
[2] = Homo sapiens, Monocyte, TNFα by TR-FRET

Sequence of IRAK4 enzyme (Q9NWZ3 whole entry): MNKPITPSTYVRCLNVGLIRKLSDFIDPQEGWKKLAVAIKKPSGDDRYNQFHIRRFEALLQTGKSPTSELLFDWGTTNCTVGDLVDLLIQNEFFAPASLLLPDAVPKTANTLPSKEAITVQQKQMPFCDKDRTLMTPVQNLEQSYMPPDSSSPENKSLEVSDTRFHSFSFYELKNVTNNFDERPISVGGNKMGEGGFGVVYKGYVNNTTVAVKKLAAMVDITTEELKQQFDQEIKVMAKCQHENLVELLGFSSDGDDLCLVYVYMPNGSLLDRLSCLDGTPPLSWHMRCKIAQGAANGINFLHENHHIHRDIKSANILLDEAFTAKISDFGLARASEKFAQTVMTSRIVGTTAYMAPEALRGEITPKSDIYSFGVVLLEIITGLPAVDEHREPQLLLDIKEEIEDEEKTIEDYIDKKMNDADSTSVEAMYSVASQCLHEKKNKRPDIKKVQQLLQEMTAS

Compound `CC(C)(CCNC(=O)c1cnc(-c2ccc3cc(C#N)cnn23)cc1NC12CCC(O)(CC1)CC2)NS(C)(=O)=O` [Example 342, 6-(3-cyanopyrrolo[1,2-b]pyridazin-7-yl)-4-((4-hydroxybicyclo[2.2.2]octan-1-yl)amino)-N-(3-methyl-3-(methyl-sulfonamido)butyl) nicotinamide] has an EC50 (TNFα; [1]) of 83 nM and an IC50 (IRAK4 enzyme; TR-FRET) of 1 nM.

In the case of `COC1(C)CN(C(=O)C23CCC(Nc4cc(-c5ccc6cc(C#N)cnn56)ncc4C(=O)NC[C@@H](F)C(C)(C)O)(CC2)CC3)C1` [Example 158, (R)-6-(3-cyanopyrrolo[1,2-b]pyridazin 7-yl)-N-(2-fluoro-3-hydroxy-3-methylbutyl)-4-((4-(3-methoxy-3-methylazetidine-1-carbonyl)bicyclo[2.2.2]octan-1-yl)amino)nicotinamide], the EC50 (TNFα; [1]) is reported as 99 nM and the IC50 (IRAK4 enzyme; TR-FRET) is reported as 2 nM.

With `CC(C)(O)[C@H](F)CNC(=O)c1cnc(-c2ccc3cc(C#N)cnn23)cc1Nc1ccc2[nH]ccc2c1` [Example 576, (R)-4-((1H-indol-5-yl)amino)-6-(3-cyano-pyrrolo[1,2-b]pyridazin-7-yl)-N-(2-fluoro-3-hydroxy-3-methylbutyl) nicotinamide] the EC50 (TNFα; [1]) was 21 nM and the IC50 (IRAK4 enzyme; TR-FRET (HTRF)) was < 1 nM.

With `COc1ccc(Nc2cc(-c3ccc4cc(C#N)cnn34)ncc2C(=O)NC[C@@H](F)C(C)(C)O)cc1` [Example 609, (R)-6-(3-cyanopyrrolo[1,2-b]pyridazin-7-yl)-N-(2-fluoro-3-hydroxy-3-methylbutyl)-4-((4-methoxyphenyl)amino) nicotinamide] the EC50 (TNFα; [1]) was 35 nM and the IC50 (IRAK4 enzyme; TR-FRET (HTRF)) was < 1 nM.

In the case of `Cc1nnc(-c2ccc(Nc3cc(-c4ccc5cc(C#N)cnn45)ncc3C(=O)NC[C@@H](F)C(C)(C)O)cc2)o1` [Example 209, (R)-6-(3-cyanopyrrolo[1,2-b]pyridazin-7-yl)-N-(2-fluoro-3-hydroxy-3-methylbutyl)-4-((4-(5-methyl-1,3,4-oxadiazol-2-yl)phenyl)amino) nicotinamide], the EC50 (TNFα; [1]) is reported as 84 nM and the IC50 (IRAK4 enzyme; TR-FRET) is reported as < 1 nM.

Work on `N#Cc1cnn2c(-c3cc(NC45CCC(O)(CC4)CC5)c(C(=O)NCc4ccc[nH]c4=O)cn3)ccc2c1` [Example 624, 6-(3-cyanopyrrolo[1,2-b]pyridazin-7-yl)-4-((4-hydroxybicyclo[2.2.2]octan-1-yl)amino)-N-((2-oxo-1,2-dihydro-pyridin-3-yl)methyl) nicotinamide] yielded an EC50 (TNFα; [1]) of 1640 nM and an IC50 (IRAK4 enzyme; TR-FRET (HTRF)) of 3 nM.

For `CC(C)(O)[C@H](F)CNC(=O)c1cnc(-c2ccc3cc(C#N)cnn23)cc1Nc1ccc(CO)cn1` [Example 670, (R)-6-(3-cyanopyrrolo[1,2-b]pyridazin-7-yl)-N-(2-fluoro-3-hydroxy-3-methylbutyl)-4-((5-(hydroxymethyl)pyridin-2-yl)amino)nicotinamide], the EC50 (TNFα; [1]) was > 10000 nM and the IC50 (IRAK4 enzyme; TR-FRET (HTRF)) was 93 nM.

Work on `COC(=O)N1CC[C@H](Nc2cc(-c3ccc4cc(C#N)cnn34)ncc2C(=O)NC[C@@H](F)C(C)(C)O)C1` [Example 751, (S)-methyl 3-((2-(3-cyano-pyrrolo[1,2-b]pyridazin-7-yl)-5-(((R)-2-fluoro-3-hydroxy-3-methylbutyl)carbamoyl)pyridin-4-yl)amino)pyrrolidine-1-carboxylate] yielded an EC50 (TNFα; [1]) of 333 nM and an IC50 (IRAK4 enzyme; TR-FRET (HTRF)) of 4 nM.

Work on `CC(C)(O)[C@H](F)CNC(=O)c1cnc(-c2ccc3cc(C#N)cnn23)cc1NC1CS(=O)(=O)C1` [Example 77, (R)-6-(3-cyanopyrrolo[1,2-b]pyridazin-7-yl)-4-((1,1-dioxidothietan-3-yl)amino)-N-(2-fluoro-3-hydroxy-3-methylbutyl)nicotinamide] yielded an EC50 (TNFα; [1]) of 352 nM and an IC50 (IRAK4 enzyme; TR-FRET) of 2 nM.

`CC(C)(O)[C@H](F)CNC(=O)c1cnc(-c2ccc3cc(C#N)cnn23)cc1N[C@H]1CN2CCC1CC2` [Example 266, 6-(3-cyanopyrrolo[1,2-b]pyridazin-7-yl)-N-((R)-2-fluoro-3-hydroxy-3-methylbutyl)-4-(((R)-quinuclidin-3-yl)amino)nicotinamide] gave an EC50 (TNFα; [1]) of 7590 nM and an IC50 (IRAK4 enzyme; TR-FRET) of 131 nM.

With `CC(C)(O)[C@H](F)CNC(=O)c1cnc(-c2ccc3cc(C#N)cnn23)cc1N[C@H]1[C@@H]2COC[C@@H]21` [Example 147, 4-(((1R,5S,6r)-3-oxabicyclo[3.1.0]hexan-6-yl)amino)-6-(3-cyano-pyrrolo[1,2-b]pyridazin-7-yl)-N-((R)-2-fluoro-3-hydroxy-3-methylbutyl)nicotinamide] the EC50 (TNFα; [1]) was 47 nM and the IC50 (IRAK4 enzyme; TR-FRET) was < 1 nM.

With `CCOc1cncc(Nc2cc(-c3ccc4cc(C#N)cnn34)ncc2C(=O)NC[C@@H](F)C(C)(C)O)c1` [Example 835, (R)-6-(3-cyanopyrrolo[1,2-b]pyridazin-7-yl)-4-((5-ethoxypyridin-3-yl)amino)-N-(2-fluoro-3-hydroxy-3-methylbutyl)nicotinamide] the EC50 (TNFα; [2]) was 8 nM and the IC50 (IRAK4 enzyme; TR-FRET) was < 1 nM.

With `CC(C)(O)[C@H](F)CNC(=O)c1cnc(-c2ccc3cc(C#N)cnn23)cc1Nc1ccc2oc(=O)[nH]c2c1` [Example 568, (R)-6-(3-cyanopyrrolo[1,2-b]pyridazin-7-yl)-N-(2-fluoro-3-hydroxy-3-methylbutyl)-4-((2-oxo-2,3-dihydrobenzo[d]oxazol-5-yl)amino)nicotinamide] the EC50 (TNFα; [1]) was 214 nM and the IC50 (IRAK4 enzyme; TR-FRET (HTRF)) was < 1 nM.

`CC(C)Nc1cc(-c2ccc3cc(C#N)cnn23)ncc1C(=O)N[C@@H]1CCC[C@H](O)C1` [Example 193, 6-(3-cyanopyrrolo[1,2-b]pyridazin-7-yl)-N-((1R,3S)-3-hydroxycyclohexyl)-4-(isopropylamino) nicotinamide] gave an EC50 (TNFα; [1]) of 141 nM and an IC50 (IRAK4 enzyme; TR-FRET) of 3 nM.

`CC(C)(O)[C@H](F)CNC(=O)c1cnc(-c2ccc3cc(C#N)cnn23)cc1N[C@H]1CCOC[C@@H]1F` [Example 151, 6-(3-cyanopyrrolo[1,2-b]pyridazin-7-yl)-N-((R)-2-fluoro-3-hydroxy-3-methylbutyl)-4-(((3R,4S)-3-fluorotetrahydro-2H-pyran-4-yl)amino) nicotinamide] was tested, and the EC50 (TNFα; [1]) was 96 nM and the IC50 (IRAK4 enzyme; TR-FRET) was < 1 nM.

`CC(C)(O)[C@H](F)CNC(=O)c1cnc(-c2ccc3cc(C#N)cnn23)cc1NC1CCC(C)(N2CCOCC2)CC1` (single isomer, unassigned) [Example 690] showed an EC50 (TNFα; TNFα content) of 71 nM and an IC50 (IRAK4 enzyme; TR-FRET (HTRF)) of 1 nM.

`CC(C)(O)[C@H](F)CNC(=O)c1cnc(-c2ccc3cc(C#N)cnn23)cc1NCC1CCS(=O)(=O)C1` (stereo partly drawn) [Example 74, 6-(3-cyanopyrrolo[1,2-b]pyridazin-7-yl)-4-(((1,1-dioxidotetrahydrothiophen-3-yl)methyl)amino)-N-((R)-2-fluoro-3-hydroxy-3-methylbutyl) nicotinamide] showed an EC50 (TNFα; [1]) of 1100 nM and an IC50 (IRAK4 enzyme; TR-FRET) of 2 nM.

With `CC(C)Nc1cc(-c2ccc3cc(C#N)cnn23)ncc1C(=O)N[C@H]1CCC[C@@H](O)C1` [Example 190, 6-(3-cyanopyrrolo[1,2-b]pyridazin-7-yl)-N-((1S,3R)-3-hydroxycyclohexyl)-4-(isopropylamino) nicotinamide] the EC50 (TNFα; [1]) was 209 nM and the IC50 (IRAK4 enzyme; TR-FRET) was 8 nM.

In the case of `CC(C)(O)[C@H](F)CNC(=O)c1cnc(-c2ccc3cc(C#N)cnn23)cc1Nc1ccc2c(c1)NC(=O)C2` [Example 573, (R)-6-(3-cyanopyrrolo[1,2-b]pyridazin-7-yl)-N-(2-fluoro-3-hydroxy-3-methyl-butyl)-4-((2-oxoindolin-6-yl)amino)nicotinamide], the EC50 (TNFα; [1]) is reported as 24 nM and the IC50 (IRAK4 enzyme; TR-FRET (HTRF)) is reported as < 1 nM.

With `N#Cc1cnn2c(-c3cc(NC45CCC(O)(CC4)CC5)c(C(=O)NCC(=O)N4CC(F)(F)C4)cn3)ccc2c1` [Example 331, 6-(3-cyanopyrrolo[1,2-b]pyridazin-7-yl)-N-(2-(3,3-difluoroazetidin-1-yl)-2-oxoethyl)-4-((4-hydroxybicyclo[2.2.2]octan-1-yl)amino) nicotinamide] the EC50 (TNFα; [1]) was 25 nM and the IC50 (IRAK4 enzyme; TR-FRET) was < 1 nM.

Work on `CC(C)(O)[C@H](F)CNC(=O)c1cnc(-c2ccc3cc(C#N)cnn23)cc1Nc1ccc(C(F)(F)F)nc1` [Example 186, (R)-6-(3-cyanopyrrolo[1,2-b]pyridazin-7-yl)-N-(2-fluoro-3-hydroxy-3-methylbutyl)-4-((6-(trifluoromethyl)pyridin-3-yl)amino)nicotinamide] yielded an EC50 (TNFα; [1]) of 145 nM and an IC50 (IRAK4 enzyme; TR-FRET) of 1 nM.

Work on `CC(C)(O)[C@H](F)CNC(=O)c1cnc(-c2ccc3cc(C#N)cnn23)cc1Nc1ccc(CN2CCOC2=O)cc1` [Example 201, (R)-6-(3-cyanopyrrolo[1,2-b]pyridazin-7-yl)-N-(2-fluoro-3-hydroxy-3-methylbutyl)-4-((4-((2-oxooxazolidin-3-yl)methyl)phenyl)amino) nicotinamide] yielded an EC50 (TNFα; [1]) of 11 nM and an IC50 (IRAK4 enzyme; TR-FRET) of 1 nM.

`CN1C(=O)C(C)(C)c2ccc(Nc3cc(-c4ccc5cc(C#N)cnn45)ncc3C(=O)NC[C@@H](F)C(C)(C)O)cc21` [Example 652, (R)-6-(3-cyanopyrrolo[1,2-b]pyridazin-7-yl)-N-(2-fluoro-3-hydroxy-3-methylbutyl)-4-((1,3,3-trimethyl-2-oxoindolin-6-yl)amino)nicotinamide] was tested, and the EC50 (TNFα; [1]) was 188 nM and the IC50 (IRAK4 enzyme; TR-FRET (HTRF)) was 2 nM.

In the case of `CC(C)Nc1cc(-c2ccc3cc(C#N)cnn23)ncc1C(=O)NC1CC2(C1)CC(C(C)(C)O)C2` (stereo not shown) [Example 5, 6-(3-cyanopyrrolo[1,2-b]pyridazin-7-yl)-N-(6-(2-hydroxypropan-2-yl)spiro[3.3]heptan-2-yl)-4-(isopropylamino)nicotinamide], the EC50 (TNFα; [1]) is reported as 207 nM and the IC50 (IRAK4 enzyme; TR-FRET) is reported as < 1 nM.

With `COC(=O)N1CC[C@@H]1CNc1cc(-c2ccc3cc(C#N)cnn23)ncc1C(=O)NC[C@@H](F)C(C)(C)O` [Example 893, (R)-methyl 2-(((2-(3-cyano-pyrrolo[1,2-b]pyridazin-7-yl)-5-(((R)-2-fluoro-3-hydroxy-3-methylbutyl)carbamoyl)pyridin-4-yl)amino)methyl)azetidine-1-carboxylate] the EC50 (TNFα; [2]) was 217 nM and the IC50 (IRAK4 enzyme; TR-FRET) was 2 nM.

Work on `COC(=O)NC[C@H]1CN(c2ccc(Nc3cc(-c4ccc5cc(C#N)cnn45)ncc3C(=O)NC[C@@H](F)C(C)(C)O)cn2)CCO1` [Example 887, methyl (((S)-4-(5-((2-(3-cyanopyrrolo[1,2-b]pyridazin-7-yl)-5-(((R)-2-fluoro-3-hydroxy-3-methylbutyl)carbamoyl)pyridin-4-yl)amino)pyridin-2-yl)morpholin-2-yl)methyl)carbamate] yielded an EC50 (TNFα; [2]) of 88 nM and an IC50 (IRAK4 enzyme; TR-FRET) of 1 nM.
